Results from patent US20240327364A1, “THERAPEUTIC TARGETING OF GPR68 TO INDUCE FERROPTOSIS” (University Of Maryland, Baltimore, priority 2023, published 2024).

Target: Lpa1 (Homo sapiens, UniProt Q92633)
Assay: Lpa1 activity of OGM analogs (Table 5)
Type: cell-based
Details: not given
Method: GPCR profiling assays were performed by Millipore (St. Louis, MO) using in cells expressing Gα15, a promiscuous G protein that enhances GPCR coupling to downstream Ca2+ signaling pathways. KinomeScan was conducted by DiscoveRx (Fremont, CA). Since GPCRs represent >30% of targets for FDA-approved small molecules and are known to modulate cell migration, activity against 158 GPCRs was assessed based on their chemical structures. GPCRs (158) were tested for agonist and antagonist activity at 10 μM. […] Chemical segregation analysis of zebrafish phenotype was conducted to further identify the inhibitory activity responsible for the zebrafish phenotype. […] The identities of the R groups in Formula A are shown below in Table 5.

Chain of Lpa1 (Q92633 whole entry, species assumed): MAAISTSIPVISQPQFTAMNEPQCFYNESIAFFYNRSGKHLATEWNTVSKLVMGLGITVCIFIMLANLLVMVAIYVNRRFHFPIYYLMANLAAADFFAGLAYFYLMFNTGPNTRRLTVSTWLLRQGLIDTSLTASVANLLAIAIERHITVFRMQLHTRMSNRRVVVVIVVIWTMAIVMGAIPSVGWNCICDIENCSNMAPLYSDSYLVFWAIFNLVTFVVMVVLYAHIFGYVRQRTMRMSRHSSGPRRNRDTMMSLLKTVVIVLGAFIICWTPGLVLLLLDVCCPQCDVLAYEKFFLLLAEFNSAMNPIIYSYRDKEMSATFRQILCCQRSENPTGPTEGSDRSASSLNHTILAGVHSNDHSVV

IC50 [µM]	SMILES
6.4	Cc1ccc2c(c1)C1(NN=C(c3ccccc3)S1)C(=O)N2 (stereo not drawn) [OGM3]
1.4	CCc1ccc2c(c1)C1(NN=C(c3ccccc3O)S1)C(=O)N2 (stereo not drawn) [OGM4]

SMILES	IC50 [µM]
Cc1noc(-c2ccc(CSCCC(=O)O)cc2)c1NC(=O)OC(C)c1ccccc1Cl (stereo not drawn) [LPAi]	0.25

System: zebrafish embryo
Assay: Zebrafish embryo phenotype
Type: in vivo
Details: concentrations up to 50 μM, ˜200× its IC50
Method: A chemical screen for small molecules that perturb embryonic development (dorsoventral axis) in zebrafish was performed as previously described (see Chen et al., 2009; Hao et al., 2013; Williams et al., 2015; Yu et al., 2008)). Briefly, pairs of WT zebrafish were mated, and fertilized eggs were arrayed in 96-well microtiter plates (5 embryos/well) containing […] E3 water. At 4 hours post fertilization (pf), a small molecule library from Vanderbilt High Throughput Screening Facility was added to each well to a final concentration of 10 μM. Embryos were incubated at 28.5 C until 24 and 48 hours pf, when they were examined for gross morphologic changes indicative of reproducible embryonic defects (dorsalization of the embryonic axis). A total of 30,000 compounds were screened. To discover novel small molecule modulators of embryonic development an unbiased screen of ˜30,000 small molecules was conducted, in which the compounds were assayed for their ability to induce phenotypic changes in the morphology of zebrafish. Further information on these assays can be found in Hao et al., 2013 and Williams et al., 2015. […] This compound was identified based on the phenotype of aberrant pigmentation. Compare FIG. 2B and FIG. 2C, which show a dorsal view of a representative DMSO vehicle control-treated zebrafish embryo at 48 hours pf and a dorsal view of a representative OGM1 (10 uM)-treated zebrafish embryo at 48 hours pf. […] Since GPCRs represent >30% of targets for FDA-approved small molecules and are known to modulate cell migration, activity against 158 GPCRs was assessed based on their chemical structures. GPCRs (158) were tested for agonist and antagonist activity at 10 μM. […] Chemical segregation analysis of zebrafish phenotype was conducted to further identify the inhibitory activity responsible for the zebrafish phenotype. […] The identities of the R groups in Formula A are shown below in Table 5.

SMILES	induction of zebrafish phenotype
Cc1noc(-c2ccc(CSCCC(=O)O)cc2)c1NC(=O)OC(C)c1ccccc1Cl (stereo not drawn) [LPAi]	failed to induce the phenotype

Same assay, conditions: concentrations up to 200× the IC50

SMILES	induction of zebrafish phenotype
Cc1noc(-c2ccc(CSCCC(=O)O)cc2)c1NC(=O)OC(C)c1ccccc1Cl (stereo not drawn) [LPAi]	failed to induce a noticeable phenotype
COc1cc(Br)c(S(=O)(=O)Nc2ccc(Cl)c(O[C@@H]3CCN(C)C3)c2)cc1OC [UT2i]	failed to induce a noticeable phenotype

System: LPS-induced ALI
Assay: LPS-induced acute lung injury
Type: in vivo, mice
Details: LPS 0.7 mg/kg intratracheally; compounds intraperitoneally
Source text: PMN (polymorphonuclear neutrophils).

SMILES	inflammatory cell infiltrates in BAL
COc1ccc(C2=NNC3(S2)C(=O)Nc2ccc(OC)cc23)cc1 (stereo not drawn) [OGM17]	reduced inflammatory cell infiltrates in BAL

Same assay, conditions: mouse, in vivo

SMILES	reversal of markers of ALI, comparison with OGM2
COc1ccc(C2=NNC3(S2)C(=O)Nc2ccc(OC)cc23)cc1 (stereo not drawn) [OGM17]	much more potent in reversing the markers of ALI due to LPS in vivo

Target: T1, GPR68/OGR1 (Homo sapiens, UniProt Q15743)
T1 construct: host or cells: Chem-1 (CHEM1-OGR1) cells
T1 sequence (Q15743 whole entry): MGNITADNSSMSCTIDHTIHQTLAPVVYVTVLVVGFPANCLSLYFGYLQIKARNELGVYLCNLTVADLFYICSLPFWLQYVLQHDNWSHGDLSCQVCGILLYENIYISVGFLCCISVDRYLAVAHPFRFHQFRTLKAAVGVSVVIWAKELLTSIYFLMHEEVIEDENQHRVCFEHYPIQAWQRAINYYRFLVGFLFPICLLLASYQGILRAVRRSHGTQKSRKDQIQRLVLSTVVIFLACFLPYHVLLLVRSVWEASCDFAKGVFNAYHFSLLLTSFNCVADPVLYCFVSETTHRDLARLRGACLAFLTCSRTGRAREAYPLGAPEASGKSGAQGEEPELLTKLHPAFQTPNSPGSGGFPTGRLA
Assay: CHEM1-OGR1 cells Fluo-8 calcium assay, acidified media pH 6.4
Type: cell-based
Details: Table 5; read-out: GPR68
Method: Briefly, the methods were: On the day before the assay 20,000 cells per well of CHEM1-OGR1 cells were plated in 10% DMEM containing 10% FBS and 1% Pen/Strep into a 96 well plate. After 24 hours media was removed and cells were stained with 80 μL Fluo-8 calcium indicator dye according to manufacturer's protocol. After staining cells were treated with 20 uL of 4× concentration of test compounds. Using kinetic imaging in the Lionheart HCS fluorescence intensity was continuously measure at 10 frames per second, for 5 seconds before 100 μL of acidified media was added to the well resulting in a pH of 6.4. A ratio of fluorescence intensities prior to addition and at peak were calculated and averaged. The resulting data were platted and using a 4 parameter logistic regression EC50 (the concentration causing 50% effective inhibition) for each test compound was determined.

EC50 [µM]	SMILES
0.76	Cc1ccc2c(c1)C1(NN=C(c3ccccc3)S1)C(=O)N2 (stereo not drawn) [OGM3]
1.5	CN1C(=O)C2(NN=C(c3cccc4ccccc34)S2)c2ccccc21 (stereo not drawn) [OGM6]
3.4	CCc1ccc2c(c1)C1(NN=C(c3ccccc3O)S1)C(=O)N2 (stereo not drawn) [OGM4]

Same assay, conditions: concentration causing 50% effective inhibition of calcium response to pH 6.4; read-out: EC50

EC50 [µM]	SMILES
> 10	COc1ccc2c(c1)C1(NN=C(c3ccc4ncccc4c3)S1)C(=O)N2 (stereo not drawn) [OGM43]
> 10	COc1ccc2c(c1)C1(NN=C(c3ccc(Br)cc3)S1)C(=O)N2 (stereo not drawn) [OGM73]
1.47	O=C1Nc2ccc(F)cc2C12NN=C(c1cccc3cccnc13)S2 (stereo not drawn) [OGM46]
2.26	COC(=O)c1ccc2c(c1)C1(NN=C(c3ccccc3)S1)C(=O)N2 (stereo not drawn) [OGM41]
3.93	NS(=O)(=O)c1ccc2c(c1)C1(NN=C(c3ccc4ncccc4c3)S1)C(=O)N2 (stereo not drawn) [OGM55]
5.76	O=C1Nc2ccc(F)cc2C12NN=C(c1ccc(C(F)(F)F)nc1)S2 (stereo not drawn) [OGM76]
2.32	O=C1Nc2ccc(Cl)cc2C12NN=C(c1ccc(Cl)cc1)S2 (stereo not drawn) [OGM19]
0.669	COc1ccc2c(c1)C1(NN=C(c3ccc(Cl)cc3)S1)C(=O)N2 (stereo not drawn) [OGM22]
3.73	NS(=O)(=O)c1ccc2c(c1)C1(NN=C(c3ccccc3)S1)C(=O)N2 (stereo not drawn) [OGM52]
0.09	COc1ccc2cc(C3=NNC4(S3)C(=O)Nc3ccc(Cl)cc34)ccc2c1 (stereo not drawn) [OGM24]
1.06	Cc1ccc(C2=NNC3(S2)C(=O)Nc2ccccc23)cc1 (stereo not drawn) [OGM15]
5.48	CCc1ccc2c(c1)C1(NN=C(c3cccc4cccnc34)S1)C(=O)N2 (stereo not drawn) [OGM58]
< 0.826	O=C1Nc2ccccc2C12NN=C(c1ccc(Cl)cc1)S2 (stereo not drawn) [OGM13]
4.05	COC(=O)c1ccc2c(c1)C1(NN=C(c3cccc4cccnc34)S1)C(=O)N2 (stereo not drawn) [OGM44]
> 10	COc1ccc2cc(C3=NNC4(S3)C(=O)N(CC=C(C)C)c3ccccc34)ccc2c1 (stereo not drawn) [OGM34]
1.83	O=C1Nc2ccc(F)cc2C12NN=C(c1ccc(Cl)cc1)S2 (stereo not drawn) [OGM14]
9.08	CC(C)=CCN1C(=O)C2(NN=C(c3ccc(Cl)cc3)S2)c2cc(Cl)ccc21 (stereo not drawn) [OGM31]
0.756	COc1ccc(C2=NNC3(S2)C(=O)Nc2ccc(F)cc23)cc1 (stereo not drawn) [OGM12]
1.17	O=C1Nc2ccc(Cl)cc2C12NN=C(c1ccccc1)S2 (stereo not drawn) [OGM7]
> 10	CC(C)=CCN1C(=O)C2(NN=C(c3cccc4ccccc34)S2)c2cc(Cl)ccc21 (stereo not drawn) [OGM32]
> 10	COc1ccc(C2=NNC3(S2)C(=O)N(CC=C(C)C)c2ccccc23)cc1 (stereo not drawn) [OGM30]
0.769	Cc1ccc(C2=NNC3(S2)C(=O)Nc2ccc(F)cc23)cc1 (stereo not drawn) [OGM18]

More lines, now with the values behind:

SMILES	EC50 [µM]
COc1ccc2c(c1)C1(NN=C(c3ccc(C(F)(F)F)nc3)S1)C(=O)N2 (stereo not drawn) [OGM75]	1.59
CCc1ccc2c(c1)C1(NN=C(c3ccc(OC)cc3)S1)C(=O)N2 (stereo not drawn) [OGM28]	> 10
Cc1ccc(C2=NNC3(S2)C(=O)Nc2ccc(Cl)cc23)cc1 (stereo not drawn) [OGM16]	0.785
COc1ccc2cc(C3=NNC4(S3)C(=O)Nc3ccc(F)cc34)ccc2c1 (stereo not drawn) [OGM26]	0.655
COc1ccc(C2=NNC3(S2)C(=O)N(CC=C(C)C)c2ccc(Cl)cc23)cc1 (stereo not drawn) [OGM29]	> 10
O=C1Nc2ccc(Cl)cc2C12NN=C(c1cccc3ccccc13)S2 (stereo not drawn) [OGM23]	0.5
O=C(O)c1ccc2c(c1)C1(NN=C(c3cccnc3)S1)C(=O)N2 (stereo not drawn) [OGM61]	2.19
O=C1Nc2ccc(Cl)cc2C12NN=C(c1ccc(F)cc1)S2 (stereo not drawn) [OGM21]	0.722
O=C1Nc2ccccc2C12NN=C(c1ccc(F)cc1)S2 (stereo not drawn) [OGM20]	4
COc1ccc2c(c1)NC(=O)C21NN=C(c2ccncc2)S1 (stereo not drawn) [OGM59]	0.832
CCc1ccc2c(c1)C1(NN=C(c3ccnc(OC)c3)S1)C(=O)N2 (stereo not drawn) [OGM49, 5-ethyl-5′-(2-methoxypyridin-4-yl)-1,2-dihydro-3′H-spiro[indole-3,2′-[1,3,4]thiadiazol]-2-one: 2,2,2-trifluoroacetic acid]	1.42
CCc1ccc2c(c1)C1(NN=C(c3ccc4ncccc4c3)S1)C(=O)N2 (stereo not drawn) [OGM40]	1.19
CCc1ccc2c(c1)C1(NN=C(c3ccc4cc(OC)ccc4c3)S1)C(=O)N2 (stereo not drawn) [OGM27]	> 10
CCc1ccc2c(c1)C1(NN=C(c3ccc(C(F)(F)F)nc3)S1)C(=O)N2 (stereo not drawn) [OGM71]	10.5
CCc1ccc2c(c1)C1(NN=C(c3cccnc3)S1)C(=O)N2 (stereo not drawn) [OGM48]	> 10
O=C1Nc2ccc(F)cc2C12NN=C(c1cccnc1)S2 (stereo not drawn) [OGM56]	3.58
CC(C)=CCN1C(=O)C2(NN=C(c3cccc4ccccc34)S2)c2ccccc21 (stereo not drawn) [OGM33]	> 10

SMILES	EC50 [µM]
COc1ccc2c(c1)C1(NN=C(c3ccnc(OC)c3)S1)C(=O)N2 (stereo not drawn) [OGM63]	3.52
COc1ccc2c(c1)C1(NN=C(c3cccc4cccnc34)S1)C(=O)N2 (stereo not drawn) [OGM38]	2.62
O=C(O)c1ccc2c(c1)C1(NN=C(c3ccccc3)S1)C(=O)N2 (stereo not drawn) [OGM42]	1.88
CN1C(=O)C2(NN=C(c3ccccc3)S2)c2cc(Br)ccc21 (stereo not drawn) [OGM36]	5.6
O=C(O)c1ccc2c(c1)C1(NN=C(c3ccc4ncccc4c3)S1)C(=O)N2 (stereo not drawn) [OGM54]	4.77
COc1ccc(C2=NNC3(S2)C(=O)Nc2ccccc23)cc1 (stereo not drawn) [OGM10]	1.44
COc1ccc2c(c1)NC(=O)C21NN=C(c2ccnc(OC)c2)S1 (stereo not drawn) [OGM51]	3.57
COc1ccc(C2=NNC3(S2)C(=O)Nc2ccc(Cl)cc23)cc1 (stereo not drawn) [OGM11]	4.39
O=C1Nc2ccc(F)cc2C12NN=C(c1ccc(Br)cc1)S2 (stereo not drawn) [OGM74]	0.296
COC(=O)c1ccc2c(c1)C1(NN=C(c3ccc4ncccc4c3)S1)C(=O)N2 (stereo not drawn) [OGM37]	3.69
COc1ccc2cc(C3=NNC4(S3)C(=O)N(CC=C(C)C)c3ccc(Cl)cc34)ccc2c1 (stereo not drawn) [OGM35]	> 10
COC(=O)c1ccc2c(c1)C1(NN=C(c3cccnc3)S1)C(=O)N2 (stereo not drawn) [OGM47]	> 10
COc1ccc(C2=NNC3(S2)C(=O)Nc2ccc(OC)cc23)cc1 (stereo not drawn) [OGM17]	0.262
O=C1Nc2ccccc2C12NN=C(c1ccccc1)S2 (stereo not drawn) [OGM8]	2.74
COc1ccc2c(c1)NC(=O)C21NN=C(c2ccc3ncccc3c2)S1 (stereo not drawn) [OGM39]	1.17
O=C1Nc2ccc(F)cc2C12NN=C(c1ccccc1)S2 (stereo not drawn) [OGM9]	2.84
